Data reported in ChEMBL document CHEMBL4257225, “Compounds and compounds for use in methods for treating diseases or conditions mediated by protein disulfide isomerase” (2016).
Active and inactive are the calls of the source. The rule behind the calls is not given here.

Key:
[1] = biological target: Protein disulfide-isomerase (Homo sapiens) (UniProt P07237); experiment: Inhibition of PDI in human platelet rich plasma assessed as reduction in SFLLRN peptide-induced platelet aggregation preincubated for 30 mins followed by SFLLRN addition relative to control
Mus musculus = organism: Mus musculus; experiment: Anti-platelet activity in mouse assessed as inhibition of laser injury-induced thrombus formation by measuring reduction in platelet accumulation in cremaster arterioles by microscopic method; assay type: functional, organism-based

Sequence of Protein disulfide-isomerase (Homo sapiens) (P07237 18-508 limits assumed): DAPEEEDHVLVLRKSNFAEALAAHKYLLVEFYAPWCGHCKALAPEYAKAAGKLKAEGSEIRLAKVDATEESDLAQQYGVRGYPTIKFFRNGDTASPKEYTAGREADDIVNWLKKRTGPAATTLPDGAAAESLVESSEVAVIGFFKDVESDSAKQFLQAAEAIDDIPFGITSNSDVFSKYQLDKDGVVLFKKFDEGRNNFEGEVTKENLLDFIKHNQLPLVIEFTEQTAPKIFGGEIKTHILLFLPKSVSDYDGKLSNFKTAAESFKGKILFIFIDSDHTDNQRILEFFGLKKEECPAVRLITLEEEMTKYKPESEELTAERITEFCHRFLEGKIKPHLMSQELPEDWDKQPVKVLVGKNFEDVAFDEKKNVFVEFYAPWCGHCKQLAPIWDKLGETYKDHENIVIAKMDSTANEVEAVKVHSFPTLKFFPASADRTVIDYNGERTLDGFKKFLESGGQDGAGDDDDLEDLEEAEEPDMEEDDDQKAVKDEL

inhibition [1] [%] | Structure (SMILES) | inhibition (Mus musculus)
100 | CC(C)(C)OC(=O)C1(CCOc2ccccc2)CCN(Cc2ccc(O)c(Cl)c2)CC1 | 
100 | CCOC(=O)C1(CCOc2ccccc2)CCN(C(=O)c2ccc(O)c(Cl)c2)CC1 | 
25 to 50 | CCOC(=O)C1(CCOc2ccccc2)CCN(Cc2ccc(O)c(Cl)c2)CC1 | Active
